Test results reported in patent US10227349B2, “Pyrazolo[1,5-a]pyrimidine compound” (Eisai R&D Management Co., Ltd., priority 2016, dated 2019).

Tests used:
[1] = target: T1, PAR2 (Homo sapiens, UniProt P55085); assay: Intracellular calcium concentration measurement (trypsin-induced calcium elevation, FDSS6000); format: cell-based; conditions: HEK293 cells, trypsin 5 U/mL as agonist, test compound added 30 min before measurement; read-out: Inhibitory activity on intracellular calcium elevation (IC50 (nM))
T1 construct: Human embryonic kidney cell line HEK293 cells cultured using DMEM culture medium; endogenous in cells; host or cells: HEK293
T1 sequence (P55085 26-397): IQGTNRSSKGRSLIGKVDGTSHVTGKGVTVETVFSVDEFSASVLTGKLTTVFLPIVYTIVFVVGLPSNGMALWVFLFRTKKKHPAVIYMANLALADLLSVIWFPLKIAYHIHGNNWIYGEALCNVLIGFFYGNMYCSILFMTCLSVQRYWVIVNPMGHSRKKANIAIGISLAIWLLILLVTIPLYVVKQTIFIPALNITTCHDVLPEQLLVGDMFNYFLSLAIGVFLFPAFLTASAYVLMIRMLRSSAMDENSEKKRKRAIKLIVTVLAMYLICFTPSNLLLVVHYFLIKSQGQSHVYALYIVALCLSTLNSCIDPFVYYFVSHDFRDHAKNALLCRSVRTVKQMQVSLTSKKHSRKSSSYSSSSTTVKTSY
Source text: In the present specification, examples of the measurement method for the PAR2 inhibitory activity include measurement method for a concentration elevation of intracellular calcium; measurement method for a production increase of intracellular inositol trisphosphate; measurement method for an increase in intracellular protein phosphorylation by protein kinase C and MAP kinase; and measurement method for a production amount or a release amount of inflammation-related physiologically active substances such as cytokine, chemokine, prostaglandin and nitric monoxide. Examples of the measurement method for an elevation of intracellular calcium concentration include a method wherein a calcium-binding fluorescent probe is allowed to be incorporated in advance into a cultured cell line or an animal-derived isolated cell having PAR2, or a cell in which PAR2 is artificially expressed, a protease having the PAR2 activity function such as trypsin or a PAR2 agonist (synthetic peptides such as SLIGKV-NH2 (SEQ ID NO: 1) and SLIGRL-NH2 (SEQ ID NO: 2) is added to activate PAR2 whereby fluctuating intracellular calcium concentrations are detected as changes in the fluorescent signal. Alternatively, it is also possible to measure an intracellular calcium concentration by determining the quantity of a fluorescence intensity produced in proportion to the calcium concentration using a calcium-binding luminescent protein overexpressing cell line such as Aequorin. Specifically, examples include the methods described in Test Examples of the present specification.
Human embryonic kidney cell line HEK293 cells cultured using DMEM culture medium (Invitrogen) with 3% fetal bovine serum (3% FBS)-added was prepared to have a concentration of 2×10^5 cells/mL, and plated in a type I collagen-coated 384-well black plate (clear bottom) (Greiner) so as to be 25 μL/well and cultured in a CO2 incubator overnight. FLIPR Calcium Assay Kit (Molecular Devices) prepared with Hanks-20 mM Hepes buffer (pH 7.4) was added to the cells so as to be 25 μL/well and cultured in the CO2 incubator for 1 hour. Trypsin (SIGMA-ALDRICH, catalog number: T8816, Enzyme Commission Number 3.4.21.4) prepared so as to be 5 U/mL as final concentration (BAEE unit) with Hanks-20 mM Hepes buffer (pH 7.4) was added to a 384-well deep well polypropylene plate (Greiner) to be an agonist reagent plate. Thirty minutes before the measurement using FDSS6000 (Hamamatsu Photonics K.K.), a test compound prepared with Hanks-20 mM Hepes buffer (pH 7.4) was added to the cell so as to be 8 μL/well. The cell plate to which the test compound was added and the reagent plate were set on FDSS6000, 22 μL/well of the agonist solution was added from the reagent plate, and the change in intracellular calcium concentration was measured with a CCD camera. The measurement was carried out at 37° C. for 120 seconds and the addition of reagent from the reagent plate to the cell plate was carried out using a built-in 384-well automatic dispenser of FDSS6000.
Note that Reference Example 1 in Table 3 is the compound represented by formula (XIX) synthesized in the above Reference Example 1 (hereinafter, also referred to as Compound (XIX)). Additionally, the “Comparative Compound” in Table 3 is the compound described in Patent Literature 4 represented by the following formula (XX) (I-343; hereinafter, also referred to as Compound (XX)).

[2] = target: T2, PAR2 (Mus musculus, UniProt P55086); assay: Measurement of PAR2 agonist (SLIGRL-NH2)-induced salivation in mouse; format: in vivo; conditions: C57BL/6J male mice, 0.3 mg/mL solution 10 mL/kg orally, 60 min before SLIGRL-NH2 i.p., saliva collected 10 min
T2 construct: orally administered to C57BL/6J male mice (Charles River), 6-10 weeks of age; tissue Charles River; host or cells: Living C57BL/6J male mice (in vivo; saliva secretion)
T2 sequence (P55086 26-399): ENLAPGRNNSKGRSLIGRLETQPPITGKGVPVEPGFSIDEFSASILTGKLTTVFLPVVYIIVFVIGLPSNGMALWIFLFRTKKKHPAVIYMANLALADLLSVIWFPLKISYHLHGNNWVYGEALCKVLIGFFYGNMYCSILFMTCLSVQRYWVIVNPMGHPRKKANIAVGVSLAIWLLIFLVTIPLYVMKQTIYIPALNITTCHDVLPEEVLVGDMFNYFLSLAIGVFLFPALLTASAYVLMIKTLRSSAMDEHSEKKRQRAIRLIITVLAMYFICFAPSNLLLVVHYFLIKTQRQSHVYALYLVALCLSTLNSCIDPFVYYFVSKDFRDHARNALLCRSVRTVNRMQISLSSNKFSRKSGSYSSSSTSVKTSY
Procedure: The test compound was added to a 0.5% carboxymethyl cellulose solution to which 2% DMSO was added, so as to have the final concentration of 0.3 mg/mL, thereby preparing an administration solution containing the test compound. The administration solution containing the test compound (10 mL/kg) was orally administered to C57BL/6J male mice (Charles River), 6-10 weeks of age, using an oral sonde and a syringe. Forty-five minutes after the administration of the test compound, 10 mL/kg of a 20% (w/v) urethane solution was intraperitoneal administered to the mice which were then anesthetized. Sixty minutes after the administration of the test compound, 10 mL/kg of a 0.1 mg/mL SLIGRL-NH2 (SEQ ID NO: 2) solution was intraperitoneally administered as the PAR2 agonist and a cotton ball was immediately placed in the oral cavity of the mouse to collect the saliva. Ten minutes after the administration of the PAR2 agonist, the cotton ball was removed and weighed to measure the amount of saliva secreted.
Note that Reference Example 1 in Table 4 is Compound (XIX). Additionally, Comparative Compound in Table 4 is Compound (XX).

[3] = system: OXA-induced enteritis in BALB/c male mice; assay: Model mouse for enteritis (OXA-induced, bowel length); format: in vivo; conditions: po, 48 h, 0.1 mg/mL solution 10 mL/kg orally twice (1 hour before and day after OXA induction), length of colon and rectum two days after induction, read-out: Inhibitory activity on bowel shortening (%)
Procedure: Generally, the bowel length is known to be shorter during enteritis (Maxwell, J. R. et al. Curr. Protoc. Pharmacol. Chapter 5: Unit 5.58, 2009). The bowel length in an enteritis model was measured to evaluate the effect of the test compound.
The test compound was added to a 0.5% carboxymethyl cellulose solution so as to have a final concentration of 0.1 mg/mL, thereby preparing an administration solution containing the test compound. Hapten used was 4-ethoxymethylene-2-phenyloxazol-5-one (OXA, SIGMA-ALDRICH).
One hundred (100) μL of a solution of OXA diluted to 0.3% with ethanol was applied to the shaved abdominal region of BALB/c male mice (Charles River), 6-10 weeks of age, to create the sensitization. Five days after the sensitization, OXA was intrarectally administered to induce an enteritis reaction. More specifically, a syringe equipped with a sonde for oral administration was inserted into the anus of the mouse anesthetized by the inhalation of isoflurane at a concentration of 4-5% and 50 μL of the OXA solution adjusted to 1% with a solvent of 50% ethanol/50% distilled water was administered into the rectum.
One hour before and on the day following the induction of enteritis, the administration solution containing the test compound (10 mL/kg) was orally administered twice in total to the mice. Two days after the induction of enteritis, the mice were euthanized by cervical dislocation and subsequently the cecum to the anus was collected to measure the combined length of the colon and the rectum using a ruler, thereby evaluating the action of the test compound.
Note that Reference Example 1 in Table 6 is Compound (XIX).

[4] = system: DNFB-induced dermatitis in BALB/c male mice; assay: Mouse dermatitis model (DNFB-induced auricle swelling); format: in vivo; conditions: 0.3 mg/mL solution 10 mL/kg orally 8 hours after DNFB induction, auricle thickness on following day
Procedure: The test compound was added to a 0.5% carboxymethyl cellulose solution so as to have the final concentration of 0.3 mg/mL, thereby preparing an administration solution containing the test compound. Hapten used was 2,4-dinitrofluorobenzene (DNFB, Wako Pure Chemical Industries).
Twenty-five (25) μL of a solution of DNFB diluted to 0.4% with a mixed solvent of acetone and an olive oil in a volume ratio of 2:1 was applied twice to the shaved abdominal region of BALB/c male mice (Charles River), 6-10 weeks of age, over a period of 2 days to create the sensitization. Four days after the sensitization, on the first day, 20 μL of a solution of DNFB diluted to 0.2% with a mixed solvent of acetone and an olive oil in a volume ratio of 2:1 was applied to the right auricle of the mouse to induce dermatitis. Eight hours after the induction of dermatitis, the administration solution containing the test compound (10 mL/kg) was orally administered to the mouse. On the day following the induction of dermatitis, the right auricle thickness of the mouse was measured using a thickness gauge to evaluate the action of the test compound.
Note that Reference Example 1 in Table 5 is Compound (XIX).

Compound | IC50 [1] [nM] | Inhibitory activity on the PAR2-dependent saliva secretion (%) [2] [%] | inhibition in vivo at 100 µg/mL, 1 mg/kg [3] [%] | Inhibitory activity on auricle swelling (%) [4] [%]
CO[C@H]1CN(C(=O)c2cc3nc(-c4cc(F)c(F)c(F)c4)cc(N(C)c4c(C)cccc4C)n3n2)CC[C@H]1CC(=O)O (relative stereo) [Example 2, 2-((3R*,4S*)-1-(7-((2,6-dimethylphenyl)(methyl)amino)-5-(3,4,5-trifluorophenyl)pyrazolo[1,5-a]pyrimidine-2-carbonyl)-3-methoxypiperidin-4-yl)acetic acid] | 7.54 | 91.3 | 69.7 | –
COc1cccc(C)c1N(C)c1cc(-c2cc(F)c(F)c(F)c2)nc2cc(C(=O)N3CC[C@@H](CC(=O)O)[C@@H](F)C3)nn12 (relative stereo) [Example 5, 2-((3R*,4S*)-3-fluoro-1-(7-((2-methoxy-6-methylphenyl)(methyl)amino)-5-(3,4,5-trifluorophenyl)pyrazolo[1,5-a]pyrimidine-2-carbonyl)piperidin-4-yl)acetic acid] | 2.45 | 94.5 | 106 | –
COc1cccc(C)c1N(C)c1cc(-c2cc(F)c(F)c(F)c2)nc2cc(C(=O)N3CC[C@@H](CC(=O)O)[C@@H](OC)C3)nn12 (relative stereo) [Example 6, 2-((3R*,4S*)-3-methoxy-1-(7-((2-methoxy-6-methylphenyl)(methyl)amino)-5-(3,4,5-trifluorophenyl)pyrazolo[1,5-a]pyrimidine-2-carbonyl)piperidin-4-yl)acetic acid] | 2.79 | 97.0 | 79.6 | –
CN(c1c(F)cccc1Cl)c1cc(-c2cc(F)c(F)c(F)c2)nc2cc(C(=O)N3CC[C@@H](CC(=O)O)[C@@H](F)C3)nn12 (relative stereo) [Example 13, 2-((3R*,4S*)-1-(7-((2-chloro-6-fluorophenyl)(methyl)amino)-5-(3,4,5-trifluorophenyl)pyrazolo[1,5-a]pyrimidine-2-carbonyl)-3-fluoropiperidin-4-yl)acetic acid] | 4 | 95.0 | 62.2 | –
COc1cccc(F)c1N(C)c1cc(-c2cc(F)c(F)c(F)c2)nc2cc(C(=O)N(C)[C@H](C)CC(=O)O)nn12 [Example 7, (R)-3-(7-((2-fluoro-6-methoxyphenyl)(methyl)amino)-N-methyl-5-(3,4,5-trifluorophenyl)pyrazolo[1,5-a]pyrimidine-2-carboxamide)butanoic acid] | 1.74 | 96.0 | – | 61.6

Continued, in another order:

IC50 [1] [nM] | Inhibitory activity on the PAR2-dependent saliva secretion (%) [2] [%] | Compound | inhibition in vivo at 100 µg/mL, 1 mg/kg [3] [%] | Inhibitory activity on auricle swelling (%) [4] [%]
12.8 | – | CCCN(c1cc(-c2cc(F)c(Cl)c(F)c2)nc2cc(C(=O)N3C[C@@H]4[C@@H](CC(=O)O)[C@@H]4C3)nn12)C(C)C [Example 15, 2-((1α,5α,6α)-3-(5-(4-chloro-3,5-difluorophenyl)-7-(isopropyl(propyl)amino)pyrazolo[1,5-a]pyrimidine-2-carbonyl)-3-azabicyclo[3.1.0]hexan-6-yl)acetic acid] | – | 17.4
26.3 | 98.2 | CC(C)CN(c1cc(-c2cc(F)c(F)c(F)c2)nc2cc(C(=O)N3C[C@@H]4[C@@H](CC(=O)O)[C@@H]4C3)nn12)[C@@H](C)c1ccccc1 [Example 16, 2-((1α,5α,6α)-3-(7-(isobutyl((S)-1-phenylethyl)amino)-5-(3,4,5-trifluorophenyl)pyrazolo[1,5-a]pyrimidine-2-carbonyl)-3-azabicyclo[3.1.0]hexan-6-yl)acetic acid] | 74.5 | –
